Reference: PubChem BioAssay AID179 (DTP/NCI, 2004)
The source made the active and inactive calls.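 Rule for the calls: active = compounds giving half or more protection of infected cells from virus-caused growth loss, again on retest; inactive = the rest.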

Tested on: CEM cells HIV-1 protection, formazan growth assay
Assay: NCI AIDS Antiviral Assay
Details: for IC50: measured here: growth of uninfected CEM cells
Summary of the method: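 CEM (human) cells, HIV-1 infected vs uninfected, 5-point dosing, formazan growth read-out. Retest threshold 50% protection.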

Compound	EC50 [µM]	IC50 [µM]	outcome
COc1cc(C2SC(N)=Nc3c2c(C)nn3C(=O)Cc2ccccc2)ccc1O (stereo not drawn)	70.8	> 200	–
CC(C)(C)NCc1c(C(=O)NCCO)[n+](=O)c2ccccc2n1[O-]	> 75.9	> 75.9	–
C1=C2/CC[C@H](Sc3ccccc3)[C@H]2C2(CCCCC/1)OCCO2	> 15.8	> 15.8	–
CCOC(=O)C(CCC1=NC(C)(C)CC(C)O1)C(=O)OCC (stereo not drawn)	> 200	> 200	–
OC1CCOc2ccccc21 (stereo not drawn)	> 200	> 200	–
CC(=O)CCC(=O)C(=[N+]=[N-])S(=O)(=O)c1ccccc1	> 891	151	–
CN(C)CC(=O)C1C(=O)N(C)c2ccccc21 (stereo not drawn)	> 200	> 200	–
Cc1ccc(/C=C/C(=O)c2sc(-n3nc(-c4ccccc4)cc3-c3ccccc3)nc2C)cc1	> 11.2	> 11.2	–
CCCCNc1ccc(/C=C2\C=Cc3ccccc32)cc1	> 10	> 10	–
NC(=O)C(=O)Cc1nc2ccccc2s1	> 91.2	> 91.2	–
O=c1[nH]ccc(CNC23CC4CC(CC(C4)C2)C3)c1O	> 45.7	> 45.7	–
Nc1nc(Cl)c(N=Nc2ccc(Cl)cc2)c(NCC2(CO)CC2)n1	> 200	> 200	–
CCOCc1c(C)cc(C)c(C2C(C(=O)c3ccccc3)N3c4ccccc4C=CC3C2(C#N)C(=O)OCC)c1C (stereo not drawn)	> 200	33.9	–
COCOc1cc(C)c(C(=O)Oc2cc(C)c(C(=O)OC)c(OCOC)c2C)c(OCOC)c1C=O	> 200	26.9	–
Cc1cc(=O)n(-c2c(C)cccc2Cl)c(/C=C(\O)c2ccncc2)n1	> 4.07	> 4.07	–
CC(=O)N/N=C1\NN(C(C)=O)C2(S1)C(=O)Nc1ccccc12 (stereo not drawn)	> 200	> 200	–
CSC1N=CNc2c1sc(=S)n2-c1ccccc1 (stereo not drawn)	> 33.9	> 33.9	–
CCSSc1ccccc1C(=O)O	> 200	32.4	–
COc1ccc(C(=O)Cc2nc3nnc(N)n3nc2CC(=O)c2ccc(OC)cc2)cc1	> 575	> 575	–
Cc1ccc(S(=O)(=O)/N=C2/N(C)CCCS2(=O)=O)cc1	> 200	> 200	–
CSc1nc(C)c2c(n1)SCC2	> 200	> 200	–
COC(=O)C(Cn1cnc2c(Cl)nc(N)nc21)P(=O)(OC)OC (stereo not drawn)	> 692	37.2	–

Compound	EC50 [µM]	IC50 [µM]	outcome
O=S(=O)(Nc1ccc(NS(=O)(=O)c2ccccc2)c(N2N=N2)c1)c1ccccc1	> 200	51.3	–
Cc1ccc(C(=O)Nc2ccc(S(=O)(=O)O)c3cc(S(=O)(=O)O)cc(S(=O)(=O)O)c23)cc1NC(=O)c1cccc(N)c1	> 200	> 200	–
C/C(=C\c1ccccc1)C(O)S(=O)(=O)O (stereo not drawn)	–	–	inactive
Nc1nn2cc3c(nc2c1N=Nc1ccccc1)-c1ccccc1CC3	> 200	> 200	–
S=c1[nH][nH]c(=S)c2c1[nH]c(=S)n2Cc1ccccc1	41.7	43.7	–
CNC(=O)C1(C#N)C(c2ccccc2)C(C#N)(C(=O)NC)C1c1ccccc1 (stereo not drawn)	> 200	166	–
CC1(C)OC(=O)C(C#N)=C1/C=C\c1ccco1	> 1100	> 1100	–
Cn1c(=O)c(=O)n(C)c2cc(Cl)c(Cl)cc21	> 200	> 200	–
Cc1cc2c(cc1Br)C1(C)CCC(C)C1(C)O2 (stereo not drawn)	> 50.1	> 50.1	–
O=C/C(=C1/C=Cc2cc([N+](=O)[O-])ccc2S1)c1ccccc1	> 200	> 200	–
COC(=O)[C@@H]1C[C@]2(CC=C(C)C)c3ccccc3N(S(=O)(=O)c3ccccc3)[C@@H]2N1C(=O)OC	> 200	20	–
C/C=C(/C1CC(=O)N2CCc3c([nH]c4ccccc34)C2C1)[Si](C)(C)C (stereo not drawn)	> 10.7	> 10.7	–
CN1CCC[C@H]1C(=O)c1oc(CO)cc(=O)c1O	–	–	inactive
CCCCNC(C)(C)C(SSSC(c1cccs1)C(C)(C)NCCCC)c1cccs1 (stereo not drawn)	> 200	20	–
O=C(Nc1ccc(Br)cc1)C(=O)C(C(=O)c1ccccc1F)C1OC(=O)c2ccccc21 (stereo not drawn)	> 263	35.5	–
CC(C)(C)N1OC2(CCCCC2)n2c(=O)c3ccccc3c(=O)n2C1c1ccccc1 (stereo not drawn)	> 589	> 589	–
COc1ccc(CC2C(=O)NC(=O)NC2=O)cc1OC	> 200	> 200	–
Nc1ncnc2c1ncn2C1CC(O)C(CO)O1 (stereo not drawn)	> 1000	186	–
CCOC(=O)/C(C1=N[C@H](C(=O)OCC)CS1)=C(\O)c1ccccc1	> 145	> 145	–
Oc1cc(CN2CCOCCOCCOCCOCC2)c(O)cc1CN1CCOCCOCCOCCOCC1	> 437	13.2	–
O=C1CC(c2ccco2)C2(C(=O)NC(=O)NC2=O)C(c2ccco2)C1 (stereo not drawn)	> 200	> 200	–
O=c1n(CC2CS2)c2ccccc2n1CC1CS1 (stereo not drawn)	> 339	6.61	–

Compound	EC50 [µM]	IC50 [µM]	outcome
COc1cc2c(cc1OC)C(c1ccc(N=Cc3ccc(N(C)C)cc3)cc1)N(C(=S)Nc1cc(Cl)ccc1Cl)CC2 (stereo not drawn)	–	–	inactive
O=C(C1OC1c1cccc([N+](=O)[O-])c1)C12CC3CC(CC(C3)C1)C2 (stereo not drawn)	> 200	3.47	–
CC1(C)CC(=O)C2=C(C1)Nc1ccccc1NC2c1ccccc1 (stereo not drawn)	> 200	> 200	–
COC1=C2C[C@](OC)(C#CC=CC#CC2O)CC1(C)C (stereo partly drawn)	> 200	97.7	–
O=C1CNCCNCC(=O)Nc2ccccc2-c2ccccc2N1	–	–	inactive
O=C1CCC(N2C(=O)C3C4CCC(O4)C3C2=O)C(=O)N1 (stereo not drawn)	> 200	> 200	–
O=C(CCCCCCCCC(=O)N1C(=O)CC(=O)N(c2cccc(Cl)c2)C1=S)N1C(=O)CC(=O)N(c2cccc(Cl)c2)C1=S	> 200	85.1	–
CC(C)(C)C1=CC(=Nc2ccc([N+](=O)[O-])cc2[N+](=O)[O-])C=C(C(C)(C)C)C1=O	> 13.5	> 13.5	–
COc1cc2ccc3c4c(OC)cc(OC)c(OC)c4c(=O)n(C)c3c2cc1OC	> 45.7	3.63	–
O=C(N/C(=C/c1ccc(Cl)cc1)c1nc2ccccc2c(=O)n1Nc1ccc([N+](=O)[O-])cc1[N+](=O)[O-])c1ccccc1	> 200	178	–
Cc1nc2c3c(ccc2[nH]c1=O)C(=O)c1ccccc1C3=O	–	–	inactive
COc1ccc2c(C3(C)OC(=O)c4ccccc43)cccc2c1 (stereo not drawn)	> 40.7	> 40.7	–
O=CN/C=C/c1ccccc1O	> 200	> 200	–
CC1=NN(C(=O)CC(=O)N(C(=O)c2ccccc2)c2ccc(Cl)cc2)C(=O)C1N=Nc1ccc([N+](=O)[O-])cc1 (stereo not drawn)	174	> 200	–
OC(c1ccc(-c2ccccc2)cc1)C(F)(F)c1nc2ccccc2o1 (stereo not drawn)	> 200	34.7	–
O=C(CCN1CCCCC1)c1cc2cc([N+](=O)[O-])ccc2oc1=O	> 219	112	–
c1ccc(CCC[P+](c2ccccc2)(c2ccccc2)c2ccccc2)cc1	> 200	0.692	–
CCOC(=O)CNC(=O)c1cccc2c(Nc3ccc(S(=O)(=O)Nc4cc(C)on4)cc3)c3ccccc3nc12	> 200	12.3	–
O=C1C(=O)c2ccccc2C(O)=C1Sc1ccc(Cl)cc1	> 200	17.4	–
CC(C)Sc1nc(C#N)cc2c1CCCC2	> 200	57.5	–
